From PMC9046991, “Preparation, Characterization, and Cytoprotective Effects on HUVECs of Fourteen Novel Angiotensin-I-Converting Enzyme Inhibitory Peptides From Protein Hydrolysate of Tuna Processing By-Products” (Frontiers in Nutrition, 2022)
Like-named read-outs stand apart in the source and are kept apart here. Where a SMILES comes first, the peptide text is derived from it.

How the values were obtained:
HUVECs [1] = experiment: HUVEC cell viability (MTT assay); format: cell-based, human
Protocol: After thawing, HUVECs were maintained in cultured flasks and cultured to confluence in DMEM containing 1% penicillin-streptomycin liquid, supplemented with 10% FBS. HUVECs received the culturing process at 37°C in a humidified 5% CO2 atmosphere ([34]).
The cytotoxicity of STAP3, STAP4, STAP7, and STAP11 on HUVECs was assessed using MTT assay on manufacturer's instructions ([34]). In brief, HUVECs received the incubation in 96-well plates at a density of 0.8 × 10^4 cells per well with 180 μl completed DMEM. Following the confluence of 50–60% in the 96-well plates, cells were treated with 20 μl peptides under-designed concentrations (100, 200, and 400 μM) and further cultured for 24 h at 37°C. Subsequently, cells were added with 20 μL MTT solutions (5 mg/mL) and incubated for 4 h. Finally, DMSO was added into each well and the absorbance (A) at 490 nm was determined. The cell viability was calculated as:
Cell viability(% of blank control)=(Aexperiment group/Acontrol group)×100.

HUVECs [2] = experiment: NO production in HUVECs; format: cell-based, human; conditions: 24 h, mean ± SD
Excerpt: NO and ET-1 productions in treated cells were obtained by employing human NO and ET-1 assay kits according to the manufacturers' protocol.

HUVECs [3] = experiment: ET-1 secretion of HUVECs; format: cell-based, human; conditions: NE 0.5 μM, 24 h, mean ± SD
Protocol: The NO and ET-1 contents of HUVECs were determined after a 24 h treatment of ACEi peptides (STAP3, STAP4, STAP7, and STAP11, respectively) ([34]). HUVECs received the plating process in 6-well plates and the treating process with Cap (1 μM), NE (0.5 μM), designed concentrations of ACEi peptides (100, 200, and 400 μM) for 24 h, or treated with both NE (0.5 μM) and 200 μM ACEi peptides for 24 h. NO and ET-1 productions in treated cells were obtained by employing human NO and ET-1 assay kits according to the manufacturers' protocol.

ACE = conditions: cited from earlier work; for IC50: data in the AHTPDB database, read-out: IC50 (ACEi ability)
Excerpt: Then, Ser residue, especially its hydroxyl group, should play a vital effect on the ACEi capability of STAP4, STAP7, and STAP11 ([67]). Yust et al. made clear that short peptide sequences ...

[4] = 100, 200 and 400 μM, 24 h, MTT, % of blank control

CSCC[C@H](N)C(=O)N[C@@H](CCC(=O)O)C(=O)N[C@@H](CCCCN)C(=O)N[C@@H](CO)C(=O)O [STAP4, Met-Glu-Lys-Ser] (H-MEKS-OH)
cell viability (HUVECs [1]; [4]): no significant influence on the proliferation of HUVECs

NC[C@H](O)c1ccc(O)c(O)c1 [NE, norepinephrine]
NO level (HUVECs [2]; NE 0.5 μM): 24.25 ± 0.63 μmol/gprot
ET-1 secretion (HUVECs [3]): 140.23 ± 5.81 pg/mL

EVLIQ [ACEi peptide from stone fish]
IC50 (ACEi) (ACE; peptides from stone fish): 1440 µg/mL

CSCC[C@H](N)C(=O)N[C@@H](CCCCN)C(=O)N[C@@H](CCCCN)C(=O)N[C@@H](CO)C(=O)O [STAP7, Met-Lys-Lys-Ser] (H-MKKS-OH)
cell viability (HUVECs [1]; [4]): no significant influence on the proliferation of HUVECs

MVGSAPGVL [ACEi peptide from skate (Okamejei kenojei)]
IC50 (ACEi) (ACE; peptides from Okamejei kenojei): 3090 µg/mL
IC50 (ACEi) (ACE; peptides from skate): 3090 µg/mL

PYVRYL [ACEi peptide in the AHTPDB database]
IC50 (ACE): 1.9 µM

CC(C)C[C@H](N)C(=O)N1CCC[C@H]1C(=O)N[C@@H](CCCNC(=N)N)C(=O)N[C@@H](CO)C(=O)O [STAP11, Leu-Pro-Arg-Ser] (H-LPRS-OH)
cell viability (HUVECs [1]; 400 µM, SD): 91.07 ± 1.36%
cell viability (HUVECs [1]; [4]): no significant influence on the proliferation of HUVECs

EHPVL [ACEi peptide from stone fish]
IC50 (ACEi) (ACE; peptides from stone fish): 1680 µg/mL

VFPS [ACEi peptide in the AHTPDB database]
IC50 (ACE): 0.46 µM

LGPLGHQ [ACEi peptide from skate (Okamejei kenojei)]
IC50 (ACEi) (ACE; peptides from Okamejei kenojei): 3490 µg/mL
IC50 (ACEi) (ACE; peptides from skate): 4220 µg/mL

WRKER [ACEi peptide from Antarctic krill]
IC50 (ACEi) (ACE; peptides from Antarctic krill): 3285 µg/mL

MIFPGAGGPEL [ACEi peptide in the AHTPDB database]
IC50 (ACE): 0.03 µM

C[C@@H](O)[C@H](N)C(=O)N[C@@H](CCC(=O)O)C(=O)O [STAP1, Thr-Glu] (H-Thr-Glu-OH)
cell viability (HUVECs [1]; 100 µM, SD): 108.52 ± 5.19%

LAPPTM [ACEi peptide from stone fish]
IC50 (ACEi) (ACE; peptides from stone fish): 1310 µg/mL

C[C@H](CS)C(=O)N1CCC[C@H]1C(=O)O [Cap, captopril]
NO level (HUVECs [2]; Cap 1 μM, positive control): 65.96 ± 1.83 μmol/gprot

RYRP [ACEi peptide from protein hydrolysate of Saurida elongate]
IC50 (ACEi) (ACE; peptide from Saurida elongate): 3350 µg/mL

IRWCT [ACEi peptide in the AHTPDB database]
IC50 (ACE): 1 µM
